These results are taken from paper doi:10.1101/2022.02.04.479134, “A Suite of TMPRSS2 Assays for Screening Drug Repurposing Candidates as Potential Treatments of COVID-19” (bioRxiv, 2022).

The nature of one data set: in vitro. Particulars: human.
Data set [1] addresses T1, Recombinant Human TMPRSS2 (Homo sapiens, UniProt O15393). Put plainly: biochemical. It is filed as biochemical. The note with it: for AC50: 10 μM Boc-QAR-AMC, 0.175 μM TMPRSS2, 1 h RT, 11-point dose-response in triplicate, read-out: Biochemical (fluorogenic) AC50. The procedure:
Buffer conditions were tested and optimized to include: 50 mM Tris pH 8, 150 mM NaCl and 0.01% Tween20.
Following 1 h of incubation at RT, detection was done using the PHERAstar with 340 nm excitation and 440 nm emission (Table 1).
To determine compound activity in the assay, the concentration–response data for each sample was plotted and modeled by a four-parameter logistic fit yielding IC50 and maximal response values. […] Data normalization, visualization, and curve fitting were performed using Prism (GraphPad, San Diego, CA).

In data set [2] the target is T1, Recombinant Human TMPRSS2. Briefly: biochemical. The class given is biochemical. Particulars: for AC50: 10 μM peptide, 0.4 μM TMPRSS2, 1 h RT, N/D = Not Detected, read-out: Biochemical (mass spectrometry) AC50; for IC50: biochemical assay not given, matches mass spectrometry values, read-out: IC50 inhibition of TMPRSS2.
Data set [3] in a line: Fluorescence counterassay (AMC quenching). The note with it: 1 μM AMC; for Biochemical (fluorogenic counterassay) Max Response: 0% = 1 μM AMC, −100% = 0.1 μM AMC, <0% = quenching. The procedure: Assay buffer (50 mM Tris pH 8, 150 mM NaCl, 0.01% Tween20) was added to the full plate to give a total reaction volume of 5 μL. Detection was done using the PHERAstar with 340 nm excitation and 440 nm emission. Fluorescence was normalized relative to a negative control containing 7-amino-4-methylcoumarin at 0.1 μM (−100% activity, low fluorescence) and a positive control containing 7-amino-4-methylcoumarin at 1 μM (0% activity, high fluorescence).

The subject of data set [4] is Calu-3 cells. Particulars: for AC50: read-out: Calu-3 (cytotoxicity) AC50, N/D = Not Detected.
Another data set has as its target recombinant TMPRSS2. Particulars: fluorogenic peptide substrate; cited from earlier work.
For data set [5], the system named is Calu-3 cells. The note with it: cited from earlier work.
Data set [6] has as its system H1N1 and H3N2 influenza virus strains. Particulars: Calu-3 cells; cited from earlier work.

Entries after “also recorded” stand apart in the source; their conditions may differ. Counter-ions that a name gives are not always drawn. Like-named read-outs stand apart in the source and are kept apart here.

T1 sequence (O15393 106-492): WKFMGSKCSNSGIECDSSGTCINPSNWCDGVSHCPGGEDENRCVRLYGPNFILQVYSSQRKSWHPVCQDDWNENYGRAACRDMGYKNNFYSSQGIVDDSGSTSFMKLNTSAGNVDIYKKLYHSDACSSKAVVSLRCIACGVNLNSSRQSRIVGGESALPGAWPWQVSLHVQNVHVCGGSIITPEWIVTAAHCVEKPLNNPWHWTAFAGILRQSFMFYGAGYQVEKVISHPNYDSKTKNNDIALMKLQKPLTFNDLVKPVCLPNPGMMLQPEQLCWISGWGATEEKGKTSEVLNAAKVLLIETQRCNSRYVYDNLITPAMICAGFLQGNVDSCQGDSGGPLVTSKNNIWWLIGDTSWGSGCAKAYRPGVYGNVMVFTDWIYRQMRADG

As for `N=C(N)c1ccc(OCCCCCOc2ccc(C(=N)N)cc2)cc1` [Pentamidine isethionate], the figures for the AC50 (in “in vitro”; in data set [1]; in data set [2]) were 18.6 µM, 9.49 µM and 7.6 µM, respectively. Moreover, the “Biochemical (fluorogenic counterassay) Max Response” value (“Biochemical” for short) in data set [3] is on record as -0.05%.
Consider `N=C(N)c1ccc2nc(-c3cc(CC(=O)N[C@@H](CC(=O)O)C(=O)O)cc(-c4cc(S(N)(=O)=O)ccc4O)c3O)[nH]c2c1` [PCI-27483], for which the AC50 turned out to be 1.8 µM in data set [1] and 1.4 µM in data set [2]. Further, the “Calu-3 (cytotoxicity) Max Response” value in the data set with Calu-3 cells [4] (ATP content, no PP) was found to be 0%. For the same compound, the “Biochemical” value in data set [3] is 61.3%.
Consider `CCOC(=O)c1ccc(OC(=O)CCCCCNC(=N)N)cc1` [Gabexate mesilate], for which the “Calu-3 (cytotoxicity) Max Response” value with Calu-3 cells [4] (ATP content, no PP) was 0%. For the same compound, the “Biochemical” value in data set [3] is listed as 17.4%.
As to `N=C(N)c1ccc2cc(OC(=O)c3ccc(N=C(N)N)cc3)ccc2c1` [Nafamostat mesilate], the “Calu-3 (cytotoxicity) Max Response” value with Calu-3 cells [4] (ATP content, no PP) is 0%. The “Biochemical” value in data set [3] is recorded as -1.9%.
On to Dibromopropamidine Dihydrochloride, for which the AC50 is 4.4 µM in data set [1]; 25.1 µM with Calu-3 cells [4] (ATP content, no PP); 4.34 µM in data set [2]. Further, the “Calu-3 (cytotoxicity) Max Response” value with Calu-3 cells [4] (ATP content, no PP) is on record as -85%. In addition, the “Biochemical” value in data set [3] turned out to be 87%.
Take `COC(=O)[C@H](Cc1cccc(C(=N)N)c1)[C@@H](C)NC(=O)c1ccc(-c2cc[n+]([O-])cc2)cc1` [Otamixaban]: in the data set with Calu-3 cells [4] (ATP content, no PP), the “Calu-3 (cytotoxicity) Max Response” value is 0%. In data set [3], the “Biochemical” value is listed as -1%.
Consider `NC[C@H]1CC[C@H](C(=O)Oc2ccc(CCC(=O)O)cc2)CC1` [Cetraxate HCl], for which the AC50 in data set [1] was 2.34 µM; in data set [2], 5.52 µM. In addition, in the data set with Calu-3 cells [4] (ATP content, no PP), the “Calu-3 (cytotoxicity) Max Response” value amounted to 0%. In data set [3], the “Biochemical” value was determined as 2.7%.
The corresponding values for `CN(C(=O)C(Cl)Cl)c1ccc(OC(=O)c2ccco2)cc1` [Diloxanide furoate] are 11.1 µM, 21.7 µM, 0% and -3.2%.
Take `O=c1ccc2ccc(O)cc2o1` [7-Hydroxycoumarin]: the AC50 in data set [1] came out at 8.62 µM. For the same compound, in data set [1] (at 40 μM), the “inhibition of TMPRSS2 in the fluorogenic assay” value is reported as “nearly full inhibition”. For the same compound, in the data set on Calu-3 cells [4] (ATP content, no PP), the “Calu-3 (cytotoxicity) Max Response” value is reported as 0%. Moreover, the “inhibition of TMPRSS2 in the mass spectrometry detection assay” value in data set [2] (dose-response) is listed as “no inhibition detected; also recorded: did not show inhibition”. For the same compound, the “Biochemical” value in data set [3] came to 1373%.
Turning to `CC(=O)N[C@@H](CC(C)C)C(=O)N[C@@H](CC(C)C)C(=O)N[C@H](C=O)CCCNC(=N)N` [Leupeptin], the AC50 came out at 1.58 µM in data set [1] and 0.72 µM in data set [2]. Also, in the data set on Calu-3 cells [4] (ATP content, no PP), the “Calu-3 (cytotoxicity) Max Response” value worked out at 0%. In addition, the “Biochemical” value in data set [3] came to 0.5%.
As to `O=c1ccn([C@H]2C[C@H](O)[C@@H](CO)O2)c(=O)[nH]1` [Deoxyuridine], in data set [1], the AC50 came out at 16 µM. In the data set with Calu-3 cells [4] (ATP content, no PP), the “Calu-3 (cytotoxicity) Max Response” value is 0%. Moreover, the “Biochemical” value in data set [3] amounted to 19.3%.
For the compound “Hydroxystilbamidine bis(methanesulfonate)”, the results for the AC50 in data set [1] and in data set [2] were 3.03 µM and 2.31 µM, respectively. In addition, the “Calu-3 (cytotoxicity) Max Response” value with Calu-3 cells [4] was 0%. Moreover, the “Biochemical” value in data set [3] was -6.4%.
With `CC(C)C[C@H](NC(=O)[C@H](Cc1ccccc1)NC(=O)c1cnccn1)B(O)O` [Bortezomib], the values for the concentration at half-maximal activity (AC50) (in the data set “in vitro”; in data set [1]; in data set [2]) were 0.29 µM, 11.4 µM and 9.77 µM, respectively. Further, the “Calu-3 (cytotoxicity) Max Response” value with Calu-3 cells [4] (ATP content, no PP) is reported as -97%. Further, in the data set with Calu-3 cells [4] (cytotoxicity counter-assay), the “cytotoxicity towards Calu-3 cells” value is “high cytotoxicity”. Also, in data set [3], the “Biochemical” value came to 4.6%.
With `O=S(=O)(F)Cc1ccccc1` [Phenylmethanesulfonyl fluoride (PMSF), Phenylmethanesulfonyl fluoride], the “Calu-3 (cytotoxicity) Max Response” value with Calu-3 cells [4] (ATP content, no PP) is given as 0%. In addition, in data set [3], the “Biochemical” value is given as -2.8%.
As to Marizomib / Salinosporamide A, the AC50 was 14.7 µM in data set [1]; 0.1 µM in the data set with Calu-3 cells [4] (ATP content, no PP); 22.9 µM in data set [2]. In the data set with Calu-3 cells [4] (ATP content, no PP), the “Calu-3 (cytotoxicity) Max Response” value is recorded as -98%. Besides, the “Biochemical” value in data set [3] is listed as 2.2%.
Consider `COC[C@H]1C[C@@H](c2ncc(-c3ccc4c(c3)COc3cc5c(ccc6nc([C@@H]7CC[C@H](C)N7C(=O)[C@@H](NC(=O)OC)C(C)C)[nH]c65)cc3-4)[nH]2)N(C(=O)[C@H](NC(=O)OC)c2ccccc2)C1` [Velpatasvir], for which the AC50 in data set [1] is 14.7 µM; in data set [2] it was 13.2 µM. In the data set on Calu-3 cells [4] (ATP content, no PP), the “Calu-3 (cytotoxicity) Max Response” value is recorded as 0%. In addition, the “Biochemical” value in data set [3] is 442%.
With `N=C(N)NC(=O)c1nc(Cl)c(N)nc1N` [Amiloride HCl], the AC50 in data set [1] is 8.29 µM; in data set [2], 9 µM. Besides, the “Calu-3 (cytotoxicity) Max Response” value in the data set with Calu-3 cells [4] (ATP content, no PP) is recorded as 0%. In addition, in data set [3], the “Biochemical” value was determined as 26.6%.
With `NCCc1ccc(S(=O)(=O)F)cc1` [4-(2-aminoethyl)benzenesulfonyl fluoride], the “Calu-3 (cytotoxicity) Max Response” value in the data set on Calu-3 cells [4] (ATP content, no PP) stood at 0%. In addition, the “Biochemical” value in data set [3] is listed as 23%.
Consider `Nc1nc2ncc(CNc3ccc(C(=O)N[C@@H](CCC(=O)O)C(=O)O)cc3)nc2c(=O)[nH]1` [Folic Acid], for which the AC50 in data set [1] was 13.3 µM. The “Calu-3 (cytotoxicity) Max Response” value in the data set on Calu-3 cells [4] (ATP content, no PP) is on record as 0%. Further, the “Biochemical” value in data set [3] came out at 14.5%.
For `CN(C)C(=O)COC(=O)Cc1ccc(OC(=O)c2ccc(NC(=N)N)cc2)cc1` [Camostat], in the data set with Calu-3 cells [4] (ATP content, no PP), the “Calu-3 (cytotoxicity) Max Response” value was determined as 0%. The “Biochemical” value in data set [3] is -5%.
As to `CCOC(=O)c1cc(=O)c2c(OCC(COc3cccc4oc(C(=O)OCC)cc(=O)c34)OC(=O)[C@@H](N)CCCCN)cccc2o1` [Cromoglicate lisetil], the AC50 is 16.5 µM in data set [1] and 25.1 µM in data set [2]. Moreover, in the data set on Calu-3 cells [4] (ATP content, no PP), the “Calu-3 (cytotoxicity) Max Response” value is 0%. The “Biochemical” value in data set [3] was -1.4%.
Turning to `N=C(N)c1cccc(CC(NS(=O)(=O)c2cccc(-c3ccc(Cl)cc3Cl)c2)C(=O)N2CCC(NC(=O)NC3CCCCC3)CC2)c1` (stereo not shown) [Cmpd 114 (Meyer)], the Ki on recombinant TMPRSS2 was 0.005 µM. The AC50 in data set [1] worked out at 0.57 µM. In the data set on Calu-3 cells [4] (ATP content, no PP), the “Calu-3 (cytotoxicity) Max Response” value was 0%. In addition, in the data set with Calu-3 cells [5], the “cytotoxicity within Calu-3 cells” value was “not cytotoxic”. Also, in data set [2], the AC50 is 0.26 µM and the IC50 was roughly 0.3 µM. In addition, the “Biochemical” value in data set [3] is on record as -6.2%.
With AGN194310, in data set [1], the AC50 was determined as 7.9 µM. Moreover, the “Calu-3 (cytotoxicity) Max Response” value in the data set with Calu-3 cells [4] (ATP content, no PP) came out at 0%. In addition, the “Biochemical” value in data set [3] is listed as -9.2%.
Consider `N=C(N)c1cccc(CC(NS(=O)(=O)c2cccc(-c3ccc(Cl)cc3Cl)c2)C(=O)N2CCC(CCN)CC2)c1` (stereo not shown) [Cmpd 92 (Meyer)], for which the “replication of H1N1 and H3N2 influenza virus strains” value in data set [6] is reported as “significantly reduced”. Also, at recombinant TMPRSS2, the Ki is 0.0009 µM. Also, the AC50 in data set [1] worked out at 0.41 µM. The “Calu-3 (cytotoxicity) Max Response” value in the data set on Calu-3 cells [4] (ATP content, no PP) was found to be 0%. Moreover, the “cytotoxicity within Calu-3 cells” value in the data set with Calu-3 cells [5] is listed as “not cytotoxic”. In addition, in data set [2], the AC50 was 0.28 µM and the IC50 was roughly 0.3 µM. Besides, in data set [3], the “Biochemical” value is reported as -5.6%.
G-007-LK: the AC50 in data set [1] turned out to be 14.7 µM. Also, the “Calu-3 (cytotoxicity) Max Response” value in the data set with Calu-3 cells [4] (ATP content, no PP) was found to be 0%. Also, in data set [3], the “Biochemical” value is listed as 424%.
tannic acid: the “quenching of the AMC fluorescent signal” value in data set [3] is ~ 30%.
Take `COC(=O)N[C@H](C(=O)N1CCC[C@H]1c1nc(-c2ccc(-c3ccc(-c4c[nH]c([C@@H]5CCCN5C(=O)[C@@H](NC(=O)OC)C(C)C)n4)cc3)cc2)c[nH]1)C(C)C` [Daclatasvir dihydrochloride]: the AC50 in data set [1] was 13.3 µM. In addition, the “Calu-3 (cytotoxicity) Max Response” value in the data set with Calu-3 cells [4] (ATP content, no PP) turned out to be 0%. Moreover, in data set [3], the “Biochemical” value worked out at 447%.

In general, AC50 refers to the concentration giving half of the maximal activity seen. One may read the Ki as the equilibrium dissociation constant of an inhibitor or competing ligand from its target. What is called IC50 is the concentration that gives 50% inhibition.
